Patent publication US20080311589A1, “METHOD OF HIGH-THROUGHPUT SCREENING OF MOLECULES AND COMPOUNDS FOR THEIR EFFECTS ON BIOLOGICAL AND CHEMICAL PROCESSES” (priority 1999, published 2008)
“Also recorded” adds a separate entry of the source.

Biological target: T1, conventional kinesin (Homo sapiens, UniProt P33176)
T1 sequence (P33176 1-963): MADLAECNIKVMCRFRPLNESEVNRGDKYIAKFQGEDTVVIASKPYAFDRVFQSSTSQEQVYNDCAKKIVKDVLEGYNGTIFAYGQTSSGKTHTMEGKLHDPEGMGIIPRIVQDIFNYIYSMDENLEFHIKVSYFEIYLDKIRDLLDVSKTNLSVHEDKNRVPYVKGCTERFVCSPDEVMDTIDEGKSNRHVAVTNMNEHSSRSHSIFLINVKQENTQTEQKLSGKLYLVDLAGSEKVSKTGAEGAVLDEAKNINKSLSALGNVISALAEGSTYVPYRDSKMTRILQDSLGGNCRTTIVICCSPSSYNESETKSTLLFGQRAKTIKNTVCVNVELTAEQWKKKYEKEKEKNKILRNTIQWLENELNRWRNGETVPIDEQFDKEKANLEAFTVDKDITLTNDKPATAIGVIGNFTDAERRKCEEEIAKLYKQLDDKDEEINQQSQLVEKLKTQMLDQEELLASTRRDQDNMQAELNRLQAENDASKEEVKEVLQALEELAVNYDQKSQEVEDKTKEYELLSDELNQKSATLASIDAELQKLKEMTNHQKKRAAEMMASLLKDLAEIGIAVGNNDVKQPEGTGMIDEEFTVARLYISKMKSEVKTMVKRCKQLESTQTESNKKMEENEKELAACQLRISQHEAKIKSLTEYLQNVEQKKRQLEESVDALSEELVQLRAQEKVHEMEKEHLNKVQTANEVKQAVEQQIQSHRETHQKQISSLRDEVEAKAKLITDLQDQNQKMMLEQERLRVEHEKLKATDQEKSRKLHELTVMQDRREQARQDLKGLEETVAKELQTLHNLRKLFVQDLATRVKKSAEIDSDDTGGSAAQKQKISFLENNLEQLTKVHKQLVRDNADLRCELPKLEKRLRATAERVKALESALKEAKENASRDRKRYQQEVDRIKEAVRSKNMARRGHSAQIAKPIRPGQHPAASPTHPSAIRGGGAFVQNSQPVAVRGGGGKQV
Assay: microtubule gliding driven by conventional kinesin
Type: biochemical
Settings: 200 μM
Protocol: FIG. 26. […] Conventional kinesin motility was not inhibited in the same assay. A. Model for spindle bipolarity. Plus-end directed motors, such as Eg5 are thought to be involved in the separation of the centrosomes and the establishment of a symmetric spindle axis. B. Inhibition of the kinesin Eg5 results in monastrol spindles. Microtubules, green; chromosomes, blue. Eg5 is depicted as homotetramer (9). C. […] After imaging Eg5 driven microtubule gliding in the presence of monastrol (200 μM), the same assay chamber was depleted of compound and the microtubule gliding recorded (Washout). […] D. Chemical structures of monastrol and DHP2.
Eg5 is a member of the kinesin superfamily, which includes over 100 homologous proteins involved in organelle transport, membrane organization, and assembly and maintenance of mitotic spindles (Vale et al., Annu. Rev. Cell. Dev. Biol. 13:745, 1997). To test whether monastrol affects other motor proteins, we first assayed its ability to inhibit microtubule gliding driven by conventional kinesin in vitro. The N-terminal motor domain of conventional kinesin shares 33% sequence identity with the Eg5 motor domain (Kapoor et al., Proc. Natl. Acad. Sci. USA, 1999). […] We next investigated whether monastrol disturbs the distribution of lysosomes or the Golgi apparatus in vivo. […]

monastrol
inhibition of microtubule gliding driven by conventional kinesin: no inhibition; also recorded: does not inhibit
